{
  "source": "patent US5093505A",
  "about": "“Novel heterocyclic compound, carcinostatic agent, and carcinoma controlling method” (Wakunaga Seiyaku Kabushiki Kaisha, priority 1989, dated 1992)",
  "key": {"HeLa cells": {"test_system": "HeLa cells", "assay": "Anti-carcinogenesis-promoter action: inhibition of TPA-promoted phospholipid synthesis (32Pi uptake) in HeLa cells", "format": "cell-based", "conditions": "Homo sapiens, read-out: Inhibition (%) of cell phospholipid synthesis promotion by TPA", "description": "A sample (50 μg/ml) was added to HeLa cells on the second day of cultivation. After 24 hours, TPA (5×10^-8 M) and ^32 Pi (50 μci/culture) were added at the same time. After 4 hours, a phospholipid fraction was extracted to determine the radioactivity of ^32 Pi taken in the fraction."}, "[1]": {"test_system": "cervical carcinoma cells HeLa", "assay": "Inhibition against other carcinoma cells: HeLa", "format": "cell-based, human", "conditions": "50 μg/ml", "description": "(§1) Tested were three types of human carcinoma cells, pancreatic carcinoma cells PANC-1, cervical carcinoma cells HeLa, and neuroblastoma cells GOTO. For each type, about 2×10^5 cells were spread and cultured in a dish having a diameter of 3.5 cm. After one day, compound (1) was added to the culture in a concentration of 50 μg/ml. The number of cells was counted after two days."}, "[2]": {"test_system": "gastric carcinoma cells HGC-27", "assay": "Inhibition against gastric carcinoma cells in varying concentrations", "format": "cell-based", "conditions": "two days", "description": "In a dish having a diameter of 3.5 cm, about 2×10^5 gastric carcinoma cells HGC-27 were spread and cultured. After one day, compound (1) was added to the culture in varying concentrations of 5, 10, 25, 50, and 75 μg/ml. The number of cells was counted after two days. The results are shown in FIG. 6 in which the number of cells is plotted relative to the concentration of compound (1)."}, "[3]": {"test_system": "gastric carcinoma cells HGC-27", "assay": "Inhibition against gastric carcinoma cells with time", "format": "cell-based", "conditions": "25 μg/ml, number of cells with time", "description": "In a dish having a diameter of 3.5 cm, about 2×10^4 gastric carcinoma cells HGC-27 were spread and cultured. After one day, compound (1) was added to the culture in a concentration of 25 μg/ml and the number of cells was counted with the lapse of time. The results are shown in FIG. 5 in which the number of cells is plotted relative to the culturing time."}, "[4]": {"assay": "Solubility of compound (1)", "format": "physicochemical"}, "in vivo [5]": {"assay": "in vivo", "set-up": "species or system mice", "conditions": "mouse, po"}, "in vivo [6]": {"assay": "in vivo", "set-up": "species or system rats", "conditions": "rat, po"}, "[7]": {"test_system": "mouse skin two-stage carcinogenesis", "assay": "Inhibition of promotion stage of mouse skin in vivo two-stage carcinogenesis (DMBA/TPA)", "set-up": "species or system ICR female mice", "conditions": "1 mg applied, twice a week, 1 μg TPA", "description": "A compound was examined whether it could inhibit the promotion stage of mouse skin in vivo two-stage carcinogenesis. More particularly, a group of 15 ICR female mice was tested by once applying 100 μg of DMBA as an initiator to the skin of each mouse for initiation of carcinogenesis and then applying a test solution (identified below) twice a week. Inhibition of carcinogenesis was examined during the test which continued for 18 weeks in total. The promoter used was TPA.\n1 mg of compound (1) applied"}, "neuroblastoma cells GOTO": {"test_system": "neuroblastoma cells GOTO", "assay": "Inhibition against other carcinoma cells: GOTO", "format": "cell-based, human", "conditions": "50 μg/ml", "description": "as §1"}, "[8]": {"test_system": "pancreatic carcinoma cells PANC-1", "assay": "Inhibition against other carcinoma cells: PANC-1", "format": "cell-based, human", "conditions": "PANC-1, 50 μg/ml", "description": "as §1"}, "[9]": {"conditions": "sample 50 μg/ml, TPA 5×10^-8 M, HeLa cells"}, "[10]": {"conditions": "Homo sapiens, 48 h, two days, read-out: Number of cells, Test group/Control"}},
  "note": "Where two headings read alike, the source gives them in different places.",
  "data": [
    {"compound": "Cc1occc(=O)c1O", "note": "[Compound (8), 3-hydroxy-2-methyl 4H-pyran-4-one]", "values": [
      {"measurement": "inhibition at 50 µg/mL", "setting": "HeLa cells; [9]", "result": 3.1, "unit": "%"}
    ]},
    {"compound": "CCCCCc1oc(C)c(OC)c(=O)c1O", "note": "[Compound (1), 3-hydroxy-6-methyl-5-methoxy-2-pentyl-4H-pyran-4-one]", "values": [
      {"measurement": "Number of cells (×10^5), Test group", "setting": "[1]; two days (control 11.20)", "result": "4.70 ×10^5"},
      {"measurement": "activity at 50 µg/mL", "setting": "[1]; [10]", "result": 42, "unit": "%"},
      {"measurement": "concentration dependence of inhibitory effect on gastric carcinoma cells HGC-27", "setting": "[2]; 5, 10, 25, 50, and 75 μg/ml", "result": "dependent on its concentration or dose"},
      {"measurement": "minimal effective concentration", "setting": "[2]; Homo sapiens, HGC-27, 48 h, 5 to 75 μg/ml, read-out: concentration with significant inhibitory effect on gastric carcinoma cells HGC-27", "result": "≤ 5", "unit": "µg/mL"},
      {"measurement": "inhibition of propagation of gastric carcinoma cells HGC-27", "setting": "[3]", "result": "fully effective in inhibiting the propagation"},
      {"measurement": "solubility in organic solvents", "setting": "[4]; methanol, acetone, chloroform, hexane, and ethyl acetate", "result": "soluble"},
      {"measurement": "solubility in water", "setting": "[4]; water", "result": "difficultly soluble"},
      {"measurement": "LD50", "setting": "in vivo [5]", "result": "≥ 1000", "unit": "mg/kg"},
      {"measurement": "inhibition at 50 µg/mL", "setting": "HeLa cells; [9]", "result": 83, "unit": "%"},
      {"measurement": "LD50", "setting": "in vivo [6]", "result": "≥ 1000", "unit": "mg/kg"},
      {"measurement": "average number of carcinomas per mouse", "setting": "[7]; 18th week (control 2.38)", "result": 0.22},
      {"measurement": "percentage of mice in which carcinomas developed", "setting": "[7]; 18th week (control 50%)", "result": 13, "unit": "%"},
      {"measurement": "Number of cells (×10^5), Test group", "setting": "neuroblastoma cells GOTO; two days (control 10.95)", "result": "4.85 ×10^5"},
      {"measurement": "activity at 50 µg/mL", "setting": "neuroblastoma cells GOTO; Homo sapiens, Neuroblastoma cell, 48 h, two days, read-out: Number of cells, Test group/Control", "result": 44.3, "unit": "%"},
      {"measurement": "activity at 50 µg/mL", "setting": "[8]; [10]", "result": 27.3, "unit": "%"},
      {"measurement": "Number of cells (×10^5), Test group", "setting": "[8]; two days (control 8.95)", "result": "2.45 ×10^5"}
    ]},
    {"compound": "O=c1cc(CO)occ1O", "note": "[Compound (13), 5-hydroxy-2-hydroxymethyl-4H-pyran-4-one]", "values": [
      {"measurement": "inhibition at 50 µg/mL", "setting": "HeLa cells", "result": 1.6, "unit": "%"}
    ]},
    {"compound": "CCCCCc1c(O)c(=O)c(OC)c(C)n1C", "note": "[Compound (5), 3-hydroxy-1,6-dimethyl-5-methoxy 2-pentyl-4-pyridone]", "values": [
      {"measurement": "inhibition at 50 µg/mL", "setting": "HeLa cells; [9]", "result": 24.9, "unit": "%"}
    ]},
    {"compound": "Cc1occc(=S)c1O", "note": "[Compound (9), 3-hydroxy-2-methyl-4H-pyran-4-thione]", "values": [
      {"measurement": "inhibition at 50 µg/mL", "setting": "HeLa cells; [9]", "result": 0, "unit": "%"}
    ]},
    {"compound": "CCCCCc1oc(C)c(OC)c(=S)c1O", "note": "[Compound (3), 3-hydroxy-6-methyl-5-methoxy-2-pentyl-4H-pyran-4-thione]", "values": [
      {"measurement": "inhibition at 50 µg/mL", "setting": "HeLa cells; [9]", "result": 75, "unit": "%"}
    ]},
    {"compound": "COc1ccc(C=Cc2cc(=O)c(O)co2)cc1", "note": "[Compound (11), 3-hydroxy-6-(p-methoxystyryl)-4H-pyran-4-one]", "values": [
      {"measurement": "inhibition at 50 µg/mL", "setting": "HeLa cells; [9]", "result": 72.2, "unit": "%"}
    ]},
    {"compound": "O=c1cc(C=Cc2ccccc2)occ1O", "note": "[Compound (10), 3-hydroxy-6-styryl-4H-pyran-4-one]", "values": [
      {"measurement": "inhibition at 50 µg/mL", "setting": "HeLa cells; [9]", "result": 59.3, "unit": "%"}
    ]},
    {"compound": "O=c1cc(C=Cc2ccc(Cl)cc2)occ1O", "note": "[Compound (12), 3-hydroxy-6-(p-chlorostyryl)-4H-pyran-4-one]", "values": [
      {"measurement": "inhibition at 50 µg/mL", "setting": "HeLa cells; [9]", "result": 90, "unit": "%"}
    ]},
    {"compound": "CCCCCc1oc(C)c(OC)c(=O)c1OC", "note": "[Compound (2), 6-methyl-3,5-dimethoxy-2-pentyl-4H-pyran-4-one]", "values": [
      {"measurement": "inhibition at 50 µg/mL", "setting": "HeLa cells; [9]", "result": 65.3, "unit": "%"}
    ]},
    {"compound": "CCCCCC1=NC(C)=C(OC)C(=O)C1O", "note": "(stereo not drawn) [Compound (4), 3-hydroxy-6-methyl-5-methoxy 2-pentyl-4-pyridone]", "values": [
      {"measurement": "inhibition at 50 µg/mL", "setting": "HeLa cells; [9]", "result": 51.2, "unit": "%"}
    ]},
    {"compound": "CCCCCc1c(O)c(=S)c(OC)c(C)n1C", "note": "[Compound (7), 3-hydroxy-1,6-dimethyl-5-methoxy-2-pentyl 4-pyridinethione]", "values": [
      {"measurement": "inhibition at 50 µg/mL", "setting": "HeLa cells; [9]", "result": 70.6, "unit": "%"}
    ]}
  ]
}
